Several values for one entry are separate records, joined by “and”; a condition that tells them apart may be missing. Identical values can stand only once.
Experiments:
Type in all cases: in vivo, humans
[1] = Performance measures: maximum weight lifted once (1RM), bench press and squat, after 10 weeks of training
From the text: (§1) The study subjects were healthy males, ages 18 to 40, with previous weight training experience. […] Pages 111-112.
(§2) The duration of the study was 10 weeks and included a supplementation regime of D-Ribose or D-Glucose as placebo control, combined with resistance weight training. The subjects were divided into two matched groups, four subjects received D-Ribose and two subjects received placebo.
Initial performance measures were individualized to each subject. The maximum weight each subject could lift once (1RM) was determined for the bench press and the squat lift. The maximal repetitions that each subject was able to lift of their own body weight was determined. Each subject performed as many repetitions as possible, followed by a one-minute rest and then repeated. The sets were continued until no weight could be lifted, limited by a maximum of 10 sets.
(§3) There were four training sessions per week. At each training session, the subject was accompanied by a supervisor to ensure proper lifting technique, safety and efficiency of the training session. D-Ribose or placebo at a dose of 5 gm was taken one-half hour before and one-half after the training session. On the three days per week when the subjects were not trained, the subjects were allowed to consume the supplement at their convenience. […]

[2] = Change in body weight after 10 weeks of training; details: placebo group remained the same
Procedure: as §1, §2
(§4) Baseline testing was conducted before training and supplementation. Prior to any testing the subjects were required to read and sign an informed consent document. Subject information to be collected prior to the start of the exercise regimen included age, height, weight, body composition and performance measures. The body composition was determined by hydrostatic weighing and skinfold measurements to determine beginning percentage muscle mass and percentage body fat.
as §3

[3] = Underwater weight test (hydrostatic weighing), % body fat, before and after 10 weeks of weight training with supplementation
Procedure: as §1, §2, §4
(§5) There were four training sessions per week. At each training session, the subject was accompanied by a supervisor to ensure proper lifting technique, safety and efficiency of the training session. D-Ribose or placebo at a dose of 5 gm was taken one-half hour before and one-half after the training session. On the three days per week when the subjects were not trained, the subjects were allowed to consume the supplement at their convenience. Dietary recalls were also kept on Tuesday, Wednesday and Thursday of each week, but not dietary requirements were imposed.
(§6) The lifting sessions were designed to exercise mainly the largest muscles of the body, that is, arm, leg, abdominals and back. All lifting sessions were preceded by warm-up sets of 20 repetitions at low weights. After week 4, the weight to be lifted was increased when the subject was able to do the maximum number of reps for all three sets. There was a 2-minute rest between each set and a 5 minute rest between each exercise. The lifting sessions were as follows:
(§7) Following the training period of 10 weeks, the subjects were tested as for the pre-testing procedure. […]

[4] = Skinfold test, % body fat, before and after 10 weeks of weight training with supplementation
Procedure: as §1, §2, §4, §5, §6, §7

[5] = group average of four subjects, post compared to pre-training
[6] = individual subjects, after 10 weeks of weight training, 5 gm before and after each session
[7] = individual subjects, post training compared to pre-training
[8] = individual subjects, pre-training baseline

Compound: O=C[C@H](O)[C@H](O)[C@H](O)CO [Ribose, D-Ribose]
- Increase in 1 RM Squat re-test ([1]; placebo group 12 pounds): 45.5 pounds
- Increase in weight lifted once in the bench press (1RM) ([1]; placebo group improved by 10 pounds): 10.5 pounds
- Average increase in body weight [2]: 3.4 pounds
- Underwater Weight Test, % body fat, Difference, Average [3, 5]: −1.3%
- Underwater Weight Test, % body fat, Post [3, 6]: 18.5% and 23.6% and 12.5% and 27.8%
- Underwater Weight Test, % body fat, Difference [3, 7]: +0.8% and −1.1% and −5.0% and −21.9%
- Underwater Weight Test, % body fat, Pre [3, 8]: 17.7% and 22.5% and 17.5% and 29.7%
- Decrease in total body fat (underwater weight test) compared with placebo ([3]; ten week period, in words): greater decrease in body fat
- Skinfold Test, % Body Fat, Difference, Average [4, 5]: −3.1%
- Skinfold Test, % Body Fat, Post [4, 6]: 26.2% and 14.2% and 18.0% and 11.5%
- Skinfold Test, % Body Fat, Difference [4, 7]: −2.8% and −2.4% and −3.7% and −3.3%
- Skinfold Test, % Body Fat, Pre [4, 8]: 29.0% and 16.6% and 21.7% and 14.8%
- Decrease in subcutaneous body fat (skinfold test) compared with placebo ([4]; ten week period, in words): greater decrease in body fat

Reference: patent publication US6525027B2, “Use of ribose supplementation for increasing muscle mass and decreasing body fat in humans” (Bioenergy Inc., priority 2000, dated 2003)
